Values quoted from earlier work as cited in patent US20260248735A1, “A METHOD FOR PREPARING MICROPARTICLES FOR DRUG DELIVERY” (Danmarks Tekniske Universitet, priority 2023, published 2026).

Settings: as characterised by BCS class

solubility: high
Substance: calcitonin
